These results are taken from ChEMBL document CHEMBL1146192, “Substituted chromones and quinolones as potent melanin-concentrating hormone receptor 1 antagonists” (Bioorg Med Chem Lett, 2006).

Type in all cases: ADME, organism-based
The nature of series [1]: Volume of distribution in Sprague-Dawley rat at 2.5 mg/kg, iv and 10 mg/kg, po. As to conditions: in vivo, read-out: Vdss.
Series [2] can be described thus: AUC in Sprague-Dawley rat at 10 mg/kg, po. The following applies: plasma. More on the design: dose 10 mg/kg, route oral.
A short description of series [3]: Oral bioavailability in Sprague-Dawley rat at 2.5 mg/kg, iv and 10 mg/kg, po. The following applies: in vivo.
Series [4] is described as follows: Ratio of drug level in Sprague-Dawley rat brain against plasma at 2.5 mg/kg, iv and 10 mg/kg, po after 1 hr. As to conditions: read-out: BPR.
A short description of series [5]: Ratio of drug level in Sprague-Dawley rat brain against plasma at 2.5 mg/kg, iv and 10 mg/kg, po after 4 hrs. The following applies: read-out: BPR.

What is called AUC is concentration integrated over time. High values mean more exposure, low ones less exposure. Usually bioavailability stands for the share of a dose that reaches the circulation, judged against a reference dose that is usually intravenous. Low values mean little systemic uptake, high ones much systemic uptake. Consider `CN(C)[C@@H]1CCN(c2ccc(-c3coc4cc(-c5ccc(Cl)cc5)ccc4c3=O)cn2)C1.Cl`, for which the Vd in series [1] amounted to 58 L/kg. Also, the AUC in series [2] is 859 ng·h/mL. For the same compound, in series [3], the bioavailability worked out at 66%. Besides, in series [4], the Kp at 1 h was found to be 9.5. Further, the Kp at 4 h in series [5] was 25.
